One data set concerns EEEV. Kind of data set: microbe, parasite or virus in culture. It counts as cell-based, Eastern equine encephalitis virus.
The next data set concerns Heartland virus. Briefly: microbe, parasite or virus in culture. It counts as cell-based. Particulars: Vero.
For the next data set, the system named is Junin virus. Kind of data set: microbe, parasite or virus in culture. It counts as cell-based. Particulars: for EC50: Junin virus strain Candid #1, Vero cells.
The next data set concerns Tacaribe virus. Briefly: microbe, parasite or virus in culture. In kind it is cell-based. Particulars: for EC50: Tacaribe virus strain TRVL 11573, Vero cells.
The test system of another data set is Influenza A H1N1. Kind of data set: microbe, parasite or virus in culture. It counts as cell-based, influenza A virus. Particulars: Influenza A virus, H1N1, MDCK.
In a further data set the test system is Flu A H5N1 (Low Path). Briefly: microbe, parasite or virus in culture. In kind it is cell-based, influenza A virus. Particulars: Influenza A virus, H5N1, MDCK.
For the next data set, the system named is Flu B. Kind of data set: microbe, parasite or virus in culture. In kind it is cell-based, influenza B virus. Particulars: Influenza B virus, MDCK.
The test system of a further data set is Poliovirus. Kind of data set: microbe, parasite or virus in culture. Particulars: Vero 76 cells. In kind it is cell-based.
The next data set deals with MA-104 cells. Particulars: African green monkey.
In another data set the test system is RD cells. Particulars: human.
A short description of another data set: Plasma stability. Particulars: rat plasma, drug 1.00 μM.
The nature of data set [1]: Mouse PK (plasma, IP and oral). Particulars: female, ICR (CD-1).
The mark [2] stands for this setting: Mammarenavirus tacaribeense, Vero.

What is called EC50 is the concentration that produces a half-maximal response. For orientation: EC90 means the concentration needed for an effect of 90%. What is called CC50 is the concentration that lowers cell viability or growth by half. What is called half-life is the time needed for the level to fall by half in the phase considered. For the compound `O=c1ccn([C@@H]2O[C@](F)(CO)[C@@H](O)[C@H]2O)c(=O)[nH]1` [EIDD-2749, 4′-fluorouridine], the concentration for a half-maximal effect (EC50) in the data set with EEEV (EEEV strain FL93-939, Vero76 cells) is over 380000 nM; in the data set on EEEV (Eastern equine encephalitis virus, Vero 76, EEEV strain FL93-939, Vero76 cells), 380000 nM; in the data set with Junin virus, 1290 nM; in the data set with Junin virus (Mammarenavirus juninense, Vero) it was 1860 nM; with Tacaribe virus (setting [2]), under 380 nM; in the data set on Tacaribe virus it was 340 nM. Moreover, the half-maximal effective concentration (EC50) with Influenza A H1N1 is under 380 nM; in the data set on Flu A H5N1 (Low Path) it was under 380 nM; in the data set on Flu B, under 380 nM; in the data set with Poliovirus (Enterovirus C, Vero 76, Poliovirus strain Mahoney), 12200 nM; in the data set on Poliovirus (Poliovirus strain Mahoney), 11800 nM. Also, the 90% effect concentration (EC90) in the data set with Heartland virus is 122000 nM; in the data set on Junin virus (Mammarenavirus juninense, Vero) it was 380 nM; with Tacaribe virus (setting [2]), 870 nM. In addition, the CC50 in the data set with MA-104 cells and with RD cells was over 380000 nM each time. This compound also registered a half-life in the data set “Plasma stability” of 22 min. Also, the concentration at 24 h in data set [1] (ip, 10 mg/kg) came to 0.75 ± 0.1 µM; in data set [1] (po, 50 mg/kg) it was 2.8 ± 1.1 µM; in data set [1] (po, 150 mg/kg) it was 3.4 ± 1.3 µM; in data set [1] (po, 500 mg/kg), 9.8 ± 4.2 µM.

For the origin of these results see patent publication US20260124226A1 (priority 2023, published 2026).
